{"source": "patent US9718840B2", "about": "“Condensed 5-oxazolidinone derivative” (SUMITOMO DAINIPPON PHARMA CO., LTD., priority 2014, dated 2017)", "key": {"Human FIXαβ": {"molecular_target": "T1, Human FIXαβ (Homo sapiens, UniProt P00740)", "T1 construct": "3) Factor IXa (FIXa); purchased Enzyme Research Laboratories", "T1 sequence (P00740 227-461 limits assumed)": "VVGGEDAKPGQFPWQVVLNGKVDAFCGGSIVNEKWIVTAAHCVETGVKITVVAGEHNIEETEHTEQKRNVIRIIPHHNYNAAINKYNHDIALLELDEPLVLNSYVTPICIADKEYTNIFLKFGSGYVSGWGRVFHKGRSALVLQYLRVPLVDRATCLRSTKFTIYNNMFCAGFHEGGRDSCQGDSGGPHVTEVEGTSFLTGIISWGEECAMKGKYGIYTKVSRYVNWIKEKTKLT", "T1 sequence (P00740 47-191 partner limits assumed)": "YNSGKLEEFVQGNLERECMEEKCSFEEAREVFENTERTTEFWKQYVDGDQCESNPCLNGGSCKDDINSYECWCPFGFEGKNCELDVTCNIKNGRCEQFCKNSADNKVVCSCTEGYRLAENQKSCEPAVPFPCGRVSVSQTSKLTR", "test": "Enzyme selectivity evaluation test: FIXa", "assay_type": "biochemical", "description": "SPECTROZYME® FIXa (D-Leu-Ph′Gly-Arg-pNA.2AcOH) (manufactured by American Diagnostica Inc.) was added as the substrate at a final concentration of 800 μmol/L. After progression of the reaction, the absorbance was measured at OD 405 nm. Change in OD in case of no addition of the test compound was defined as 100%, and the concentration at which a rise in OD value was reduced by 50% was calculated as […]"}, "Human plasmin": {"molecular_target": "T2, Human plasmin (Homo sapiens, UniProt P00747)", "T2 construct": "Human plasmin (manufactured by Sekisui Diagnostics, LLC); purchased Sekisui Diagnostics, LLC", "T2 sequence (P00747 581-810 limits assumed)": "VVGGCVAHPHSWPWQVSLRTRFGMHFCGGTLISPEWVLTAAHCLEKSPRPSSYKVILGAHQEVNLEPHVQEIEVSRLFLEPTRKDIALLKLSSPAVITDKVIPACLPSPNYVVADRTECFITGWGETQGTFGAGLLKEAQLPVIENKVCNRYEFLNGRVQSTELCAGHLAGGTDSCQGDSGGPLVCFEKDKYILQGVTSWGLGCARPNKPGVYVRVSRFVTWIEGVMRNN", "T2 sequence (P00747 97-580 partner limits assumed)": "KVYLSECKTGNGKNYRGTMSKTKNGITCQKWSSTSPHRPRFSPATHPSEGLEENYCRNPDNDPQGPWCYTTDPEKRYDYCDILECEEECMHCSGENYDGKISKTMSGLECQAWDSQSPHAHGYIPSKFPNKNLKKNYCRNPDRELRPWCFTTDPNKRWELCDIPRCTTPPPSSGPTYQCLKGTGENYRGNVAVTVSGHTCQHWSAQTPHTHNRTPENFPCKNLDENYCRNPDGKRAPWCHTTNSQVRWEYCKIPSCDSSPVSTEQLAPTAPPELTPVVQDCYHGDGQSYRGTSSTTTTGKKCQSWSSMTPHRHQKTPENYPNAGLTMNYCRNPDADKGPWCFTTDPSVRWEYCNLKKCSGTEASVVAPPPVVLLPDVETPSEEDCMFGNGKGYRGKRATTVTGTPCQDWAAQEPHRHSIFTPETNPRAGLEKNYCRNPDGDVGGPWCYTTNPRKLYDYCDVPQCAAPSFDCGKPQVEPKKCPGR", "test": "Enzyme selectivity evaluation test: plasmin", "assay_type": "biochemical", "description": "(§1) S-2288 (H-D-Ile-Pro-Arg-pNA.2HCl) was added as the substrate at a final concentration of 300 μmol/L. After progression of the reaction, the absorbance was measured at OD 405 nm."}, "Human t-PA": {"molecular_target": "T3, Human t-PA (Homo sapiens, UniProt P00750)", "T3 construct": "purchased Calbiochem", "T3 sequence (P00750 36-562)": "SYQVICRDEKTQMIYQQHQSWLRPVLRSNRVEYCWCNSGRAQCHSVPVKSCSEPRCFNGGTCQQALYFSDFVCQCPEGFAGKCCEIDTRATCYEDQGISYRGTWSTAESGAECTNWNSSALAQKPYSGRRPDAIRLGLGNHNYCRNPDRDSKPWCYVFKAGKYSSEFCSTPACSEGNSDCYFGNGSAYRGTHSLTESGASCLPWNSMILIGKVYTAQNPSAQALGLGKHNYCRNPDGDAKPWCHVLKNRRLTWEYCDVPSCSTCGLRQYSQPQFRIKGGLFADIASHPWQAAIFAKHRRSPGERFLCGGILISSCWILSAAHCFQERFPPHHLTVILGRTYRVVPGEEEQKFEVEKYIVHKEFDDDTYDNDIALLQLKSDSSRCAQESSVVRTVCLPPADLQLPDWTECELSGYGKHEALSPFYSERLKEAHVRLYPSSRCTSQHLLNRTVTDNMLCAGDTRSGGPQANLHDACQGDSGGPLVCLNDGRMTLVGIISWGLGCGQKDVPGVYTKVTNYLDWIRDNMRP", "test": "Enzyme selectivity evaluation test: t-PA", "assay_type": "biochemical", "description": "as §1"}, "Human kallikrein": {"molecular_target": "T4, Human kallikrein (Homo sapiens, UniProt P03952)", "T4 construct": "purchased Enzyme Research Laboratories", "T4 sequence (P03952 391-638 limits assumed)": "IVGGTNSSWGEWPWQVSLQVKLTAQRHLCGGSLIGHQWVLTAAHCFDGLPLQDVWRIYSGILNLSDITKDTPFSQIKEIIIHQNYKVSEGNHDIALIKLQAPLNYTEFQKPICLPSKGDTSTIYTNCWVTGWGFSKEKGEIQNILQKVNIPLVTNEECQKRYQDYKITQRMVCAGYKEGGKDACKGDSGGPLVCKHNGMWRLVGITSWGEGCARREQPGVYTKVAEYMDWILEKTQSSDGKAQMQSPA", "T4 sequence (P03952 20-390 partner limits assumed)": "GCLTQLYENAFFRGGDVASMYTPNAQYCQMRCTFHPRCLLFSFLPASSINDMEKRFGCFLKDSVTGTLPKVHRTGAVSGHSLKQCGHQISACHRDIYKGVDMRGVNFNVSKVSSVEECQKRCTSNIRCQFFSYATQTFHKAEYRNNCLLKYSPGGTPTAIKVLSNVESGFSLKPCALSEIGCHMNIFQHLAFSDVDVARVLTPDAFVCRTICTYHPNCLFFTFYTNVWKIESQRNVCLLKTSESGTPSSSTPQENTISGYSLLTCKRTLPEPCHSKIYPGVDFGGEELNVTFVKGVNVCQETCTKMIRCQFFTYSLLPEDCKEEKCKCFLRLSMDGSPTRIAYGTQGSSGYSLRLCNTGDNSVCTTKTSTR", "test": "Enzyme selectivity evaluation test: plasma kallikrein", "assay_type": "biochemical", "description": "as §1"}, "[1]": {"tested_on": "Rabbit venous thrombus models", "test": "In vivo antithrombotic effect evaluation test using rabbit (arteriovenous shunt)", "details": "prompt i.v. + continuous i.v.", "description": "Rabbit venous thrombus models were prepared by a modification of the report of Wong et al. (Wong P C. et al., J. Pharmacol. Exp. Ther. 292: 351-357 (2000)). Male rabbits (JW, 2 to 4 kg) were anesthetized by the inhalation of isoflurane (ISOFLU®, manufactured by DS Pharma Animal Health Co., Ltd.) (introduced anesthesia: 4%, continuous anesthesia: 1.5 to 2.5%). A tracheostomy tube was inserted to each rabbit, which was then ventilated using a respirator. For the intravenous administration of a test drug and blood collection, catheters were inserted to the right femoral vein and the right femoral artery, respectively. An arteriovenous shunt filled with saline was inserted to the carotid artery and the jugular vein. The arteriovenous shunt was prepared by connecting Atom extension tubes (4Fr) having lengths of 15 cm and 13 cm to the artery side and the vein side, respectively, of a polyethylene tube (length: 60 cm, outside diameter: 11.1 mm, inside diameter: 7.9 mm). Also, 4-0 silk thread having a length of 5 cm was indwelled in the arteriovenous shunt. Blood was sent for 30 minutes from the carotid artery to the jugular vein via the arteriovenous shunt. The shunt was removed, and the weight of the silk thread covered with thrombus was measured. The weight of the silk thread measured before the experiment was subtracted from the measured weight, and the obtained value was used as a wet thrombus weight. One hour before the open of the arteriovenous shunt, the test drug or a vehicle was promptly intravenously administered (0.67 mL/kg) and then continuously intravenously administered (1 mL/kg/hr). The continuous injection was continued throughout the experiment. Further, an existing anticoagulant dabigatran (antithrombin drug) and rivaroxaban (FXa inhibitor) were tested as control drugs.\nIn order to measure aPTT of blood samples as an index for the intrinsic coagulation pathway, blood was collected before administration and immediately before cessation of blood flow, and plasma was prepared using 3.2% sodium citrate. After incubation at 37° C. for 6 minutes, an STA reagent Cephascreen (for aPTT assay; manufactured by Roche Diagnostics K.K.) was added in an amount equal thereto, and the mixture was further incubated for 4 minutes. STA calcium chloride (manufactured by Roche Diagnostics K.K.) was added in an amount equal thereto, and the time required for coagulation was measured.\nIn order to measure prothrombin time (PT) of blood samples as an index for the extrinsic coagulation pathway, blood was collected before administration and immediately before cessation of blood flow, and plasma was prepared using 3.2% sodium citrate. After incubation at 37° C. for 10 minutes, Neoplastin Plus (for PT assay; manufactured by Roche Diagnostics K.K.) was added in a double amount, and the time required for coagulation was measured."}, "[2]": {"tested_on": "Rabbit nail bleeding models", "test": "Effect of combined use with antiplatelet drug using rabbit nail bleeding model", "assay_type": "in vivo", "details": "alone; for Bleeding time: rabbit, maximum 60 minutes; for Bleeding time (fold-increase): ratio to vehicle group average", "description": "Rabbit nail bleeding models were prepared by a modification of the report of Wong et al. (Wong P C. et al., J. Thromb. Haemost. 7: 1313-1320 (2009)). Male rabbits (JW, 1.5 to 3.5 kg) were anesthetized by the inhalation of isoflurane (ISOFLU®, manufactured by DS Pharma Animal Health Co., Ltd.) (introduced anesthesia: 4%, continuous anesthesia: 2 to 3%). For the intravenous administration of a test drug or a vehicle, an indwelling needle was inserted to the auricular vein, and the test drug or the vehicle was promptly intravenously administered (0.67 mL/kg) and then continuously intravenously administered (1 mL/kg/hr). One hour after the start of administration, three posterior toenails were cut and dipped in saline heated to approximately 37° C., and the bleeding time was measured. The bleeding time was defined as a time from the cutting to the arrest of bleeding, and an average value from the three nails was used. The measurement time was 60 minutes at the maximum. If bleeding for 60 minutes or longer was confirmed, the bleeding time was regarded as 60 minutes."}, "[3]": {"details": "dose 0.15 + 0.225 mg/kg + mg/kg/h"}, "[4]": {"details": "dose 0.5 + 0.75 mg/kg + mg/kg/h"}, "[5]": {"details": "dose 1.5 + 2.25 mg/kg + mg/kg/h"}, "[6]": {"details": "dose 1.5 + 2.25 mg/kg + mg/kg/h i.v."}, "[7]": {"details": "dose 5.0 + 7.5 mg/kg + mg/kg/h i.v."}}, "data": [{"compound": "Cl.N[C@H](CF)[C@H]1CC[C@H](C(=O)N2CC[C@@H](C3CCCCC3)[C@H]2C(=O)Nc2ccc3[nH]c(C(=O)O)cc3c2)CC1", "note": "[Reference Example 2-6, 5-{[(3S)-1-({trans-4-[(1S)-1-Amino-2-fluoroethyl]cyclohexyl}carbonyl)-3-cyclohexyl-L-prolyl]amino}-1H-indole-2-carboxylic acid hydrochloride]", "values": [{"measurement": "IC50", "setting": "Human FIXαβ", "result": "> 10", "unit": "µM"}, {"measurement": "IC50", "setting": "Human plasmin", "result": "> 10", "unit": "µM"}, {"measurement": "IC50", "setting": "Human t-PA", "result": "> 10", "unit": "µM"}, {"measurement": "IC50", "setting": "Human kallikrein", "result": 0.43, "unit": "µM"}, {"measurement": "PT (ratio)", "setting": "[1]; [3]", "result": "1.01 ± 0.02", "unit": "ratio"}, {"measurement": "Thrombus weight", "setting": "[1]; [3]", "result": "81 ± 12", "unit": "mg"}, {"measurement": "aPTT (ratio)", "setting": "[1]; [3]", "result": "1.24 ± 0.08", "unit": "ratio"}, {"measurement": "PT (ratio)", "setting": "[1]; [4]", "result": "1.00 ± 0.02", "unit": "ratio"}, {"measurement": "Thrombus weight", "setting": "[1]; [4]", "result": "66 ± 22", "unit": "mg"}, {"measurement": "aPTT (ratio)", "setting": "[1]; [4]", "result": "1.59 ± 0.15", "unit": "ratio"}, {"measurement": "PT (ratio)", "setting": "[1]; [5]", "result": "1.01 ± 0.00", "unit": "ratio"}, {"measurement": "Thrombus weight", "setting": "[1]; [5]", "result": "36 ± 6", "unit": "mg"}, {"measurement": "aPTT (ratio)", "setting": "[1]; [5]", "result": "1.84 ± 0.10", "unit": "ratio"}, {"measurement": "PT (ratio)", "setting": "[1]; dose 5.0 + 7.5 mg/kg + mg/kg/h", "result": "1.02 ± 0.02", "unit": "ratio"}, {"measurement": "Thrombus weight", "setting": "[1]; dose 5.0 + 7.5 mg/kg + mg/kg/h", "result": "16 ± 6", "unit": "mg"}, {"measurement": "aPTT (ratio)", "setting": "[1]; dose 5.0 + 7.5 mg/kg + mg/kg/h", "result": "2.35 ± 0.09", "unit": "ratio"}, {"measurement": "Bleeding time", "setting": "[2]; [6]", "result": "772 ± 234", "unit": "s"}, {"measurement": "Bleeding time", "setting": "[2]; [7]", "result": "768 ± 236", "unit": "s"}, {"measurement": "Bleeding time (fold-increase)", "setting": "[2]; [6]", "result": "1.3 ± 0.4", "unit": "fold-increase"}, {"measurement": "Bleeding time (fold-increase)", "setting": "[2]; [7]", "result": "1.3 ± 0.4", "unit": "fold-increase"}]}]}
